# Tests used:
# Assay type in all cases: physicochemical
# [1] = Study of particle size distribution (PSD, laser particle size analytic meter); conditions: for D10 / D50 (median size) / D90: volume distribution; for D10 / D50 (median size) / D90 / MV (average particle size as calculated in terms of the volume): dispersion medium Isopar G; for MV (average particle size as calculated in terms of the volume): wet process; for Particle size distribution (PSD pattern): from PSD patterns FIG. 26-28
# Experimental: The particle size distribution (PSD) results as described in the invention were collected on a S3500-type laser particle size analytic meter as produced by Microtrac Company. The Microtrac S3500 is equipped with a SDC (Sample Delivery Controller) feeding system. The test was conducted via a wet process, and the dispersion medium as used in the test was Isopar G. The laser particle size analytic meter has the following parameters: [table]
# [2] = Study of moisture absorption, dynamic vapor sorption (DVS) test; conditions: for Moisture absorption characteristic according to Chinese Pharmacopoeia (2015): 25° C.±1° C.; for Moisture absorption characteristic according to Chinese Pharmacopoeia (2015) / Weight increase of 80% relative humidity: 80% relative humidity; for Weight increase of 80% relative humidity / Weight increase of 95% relative humidity: DVS, 25° C.
# Experimental: The dynamic vapor sorption (DVS) pattern as described in the invention was collected on an intrinsic dynamic vapor sorption meter as produced by Surface Measurement Systems Ltd. The dynamic vapor sorption method has the following parameters: Temperature: 25° C., Loading gas, flowing speed: N2, 200 ml/min, Variation in mass per time: 0.002%/minute, Relative humidity range: 0% RH-95% RH. […] The obtained results were shown in Table 13: With regard to the descriptions for the moisture absorption characteristic and the definition for the increased weight of moisture absorption (Guidelines for the Moisture Absorption Tests of Drugs in the Appendix of Chinese Pharmacopoeia (2015), Experimental conditions: 25° C.±1° C., 80% relative humidity): […]
# [3] = Study of long-term and acceleration stabilities (XRPD); conditions: both 25° C./60% RH and 40° C./75% RH, 3 months
# [4] = Study of dynamic solubility (saturated solution, HPLC); conditions: for Solubility assessment: FaSSIF, FeSSIF, SGF and water; for solubility at 1 h / solubility at 24 h / solubility at 4 h: thermodynamic from solid
# Text: The high performance liquid chromatography (HPLC) data were collected in an Agilent 1260, and the used detector was a diode array detector (DAD). The HPLC method as described in the invention has the following parameters: […]
# [5] = Polarizing microscope (PLM) patterns; conditions: from PLM patterns FIG. 29-31
# [6] = Study of mechanical stability (ground by hand for 5 minutes, XRPD); conditions: ground for 5 minutes by hand in a mortar
D10 [1] [μm],D50 (median size) [1] [μm],D90 [1] [μm],MV (average particle size as calculated in terms of the volume) [1] [μm],Moisture absorption characteristic according to Chinese Pharmacopoeia (2015) [2],Weight increase of 80% relative humidity [2] [%],Weight increase of 95% relative humidity [2] [%],Stability of the crystal form on storage [3],"Solubility ([4]; FaSSIF (pH = 6.5), 1 h) [mg/mL]","Solubility ([4]; FaSSIF (pH = 6.5), 4 h) [mg/mL]","Solubility ([4]; FaSSIF (pH = 6.5), 24 h) [mg/mL]",Solubility assessment [4],"Solubility ([4]; FeSSIF (pH = 5.0), 1 h) [mg/mL]","Solubility ([4]; FeSSIF (pH = 5.0), 4 h) [mg/mL]","Solubility ([4]; FeSSIF (pH = 5.0), 24 h) [mg/mL]","Solubility ([4]; H2O, 4 h) [mg/mL]","Solubility ([4]; H2O, 24 h) [mg/mL]","Solubility ([4]; SGF (pH = 1.8), 1 h) [mg/mL]","Solubility ([4]; SGF (pH = 1.8), 4 h) [mg/mL]","Solubility ([4]; SGF (pH = 1.8), 24 h) [mg/mL]",Compound,other results
21.68,163.0,903.1,289.0,almost have no moisture absorption,0.09,0.15,maintain their stability,0.008,0.010,0.012,in line with medicinal requirements,0.025,0.067,0.074,0.004,0.006,0.033,0.034,0.040,"N#Cc1ccc(Oc2ccc3c(c2)COB3O)cc1 [Crystal form III, 4-[(1,3-dihydro-1-hydroxyl-2,1-benzoxaborolane-5-yl)oxy]benzonitrile]","Solubility ([4]; H2O, 1 h): 0.005 mg/mL"
8.24,20.46,40.42,23.13,almost have no moisture absorption,0.13,0.32,maintain their stability,0.011,0.005,0.008,in line with medicinal requirements,0.018,0.049,0.055,0.001,0.006,0.010,0.026,0.015,"N#Cc1ccc(Oc2ccc3c(c2)COB3O)cc1 [Crystal form II, 4-[(1,3-dihydro-1-hydroxyl-2,1-benzoxaborolane-5-yl)oxy]benzonitrile]","Particle sizes of the particles (PLM pattern) [5]: homogeneous; Particle size distribution (PSD pattern) [1]: homogeneous; Solubility ([4]; H2O, 1 h): 0.003 mg/mL"
13.43,33.68,99.36,52.95,,1.53,4.90,,0.009,0.017,0.013,in line with medicinal requirements,0.062,0.061,0.056,0.006,0.004,0.031,0.027,0.026,"N#Cc1ccc(Oc2ccc3c(c2)COB3O)cc1 [Crystal form IV, 4-[(1,3-dihydro-1-hydroxyl-2,1-benzoxaborolane-5-yl)oxy]benzonitrile]",Particle sizes of the particles (PLM pattern) [5]: homogeneous; Particle size distribution (PSD pattern) [1]: homogeneous; Final crystal form [6]: Crystal form IV; Final crystal form ([6]; listed as crystal form IV): not changed; Moisture absorption characteristic according to Chinese Pharmacopoeia (2015) ([2]; listed as crystal IV): slight moisture absorption
1.69,5.52,20.35,9.62,almost have no moisture absorption,0.14,0.32,maintain their stability,,0.007,,in line with medicinal requirements,0.044,,,0.005,,0.011,,0.038,"N#Cc1ccc(Oc2ccc3c(c2)COB3O)cc1 [Crystal form I, 4-[(1,3-dihydro-1-hydroxyl-2,1-benzoxaborolane-5-yl)oxy]benzonitrile]","Particle sizes of the particles (PLM pattern) [5]: homogeneous; Particle size distribution (PSD pattern) [1]: homogeneous; Final crystal form [6]: Crystal form I; Final crystal form ([6]; listed as crystal form I): not changed; solubility at 1 h ([4]; fasted state simulated intestinal fluid (FaSSIF), pH 6.5, fassif, FaSSIF (pH = 6.5), 1 h): 6 µg/mL; solubility at 24 h ([4]; fasted state simulated intestinal fluid (FaSSIF), pH 6.5, fassif, FaSSIF (pH = 6.5), 24 h): 12 µg/mL; solubility at 4 h ([4]; fed state simulated intestinal fluid (FeSSIF), pH 5, fessif, FeSSIF (pH = 5.0), 4 h): 59 µg/mL; solubility at 24 h ([4]; fed state simulated intestinal fluid (FeSSIF), pH 5, fessif, FeSSIF (pH = 5.0), 24 h): 59 µg/mL; solubility at 4 h ([4]; simulated gastric fluid (SGF), pH 1.8, simulated gastric fluid, SGF (pH = 1.8), 4 h): 37 µg/mL; solubility at 1 h ([4]; water, H2O, 1 h): 4 µg/mL; solubility at 24 h ([4]; water, H2O, 24 h): 6 µg/mL"
